Experimental findings from patent US9708359B2, “Pyrrolopyrimidine nucleosides and analogs thereof” (Chimerix, Inc., priority 2015, dated 2017) are described below.

One assay concerns MCMV. Put plainly: Plaque-reduction assay for MCMV. In kind it is cell-based. Particulars: MEF. The method, then: Plaque-Reduction Assays for MCMV:
Mouse embryo fibroblast cells were prepared from mouse embryos using a procedure similar to that outlined above for HFF cells and suspended in tissue culture media as described above and seeded into plates and incubated. The medium was aspirated and the cell monolayers were infected with MCMV. The infected cells were then incubated at 37° C. for 1 h and the plates were rocked occasionally to ensure that the media covered the entire monolayer. Compounds were serially diluted in tissue maintenance cell culture media described above and the solutions were added to the infected monolayers. Infected monolayers were incubated for 7 d and then stained with Neutral Red solution as described above. Plaques were enumerated and EC50 values were interpolated from the experimental data by standard methods.
Mouse embryo fibroblast cells were prepared from mouse embryos using a procedure similar to that outlined above for HFF cells and suspended in tissue culture media as described above and seeded into 12 well plates and incubated at 37° C. for 24 h. The medium was aspirated and the cell monolayers were infected with the Smith strain of MCMV in a final volume of 0.2 mL in each of triplicate wells. The infected cells were then incubated at 37° C. for 1 h and the plates were rocked occasionally to ensure that the media covered the entire monolayer. […]
(In general: Plaque reduction counts the foci of infection that form in a cell layer.)

The next assay has as its system RVFV. Put plainly: microbe, parasite or virus in culture. The format is cell-based. Conditions: Rift Valley fever virus, Vero 76.
The test system of another assay is HCV. In words: microbe, parasite or virus in culture. The format is cell-based. Conditions: Hepatitis C virus, Huh 7 cells. The method, then: Luciferase reporter (Replicon)/CytoTox-1 (Toxicity). Compounds were screened for anti-HCV activity using a luciferase (Luc) reporter gene endpoint in the HCV primary assay. The Luc reporter was used as an indirect measure of HCV replication as its activity is directly proportional to HCV RNA levels. Assessment of cytotoxicity is conducted in parallel. Drug stocks were prepared in DMSO unless otherwise specified and were diluted with tissue culture medium to the desired high-test concentration. For each assay, the compounds were then further diluted in tissue culture medium as required. After incubation, the cells were processed to derive, where applicable, EC50 and EC90 (compound concentration reducing replicon replication by 50% and 90% respectively). […] Anti-HCV activity was assessed with the replicon (genotype 1b or 2a) or HCVcc virus-derived Luc activity as readout; whereas the cytotoxic concentrations of drug reducing cell numbers was assessed by the CytoTox-1 cell proliferation assay according to manufacturer's protocol. […]
Luciferase reporter (Replicon)/CytoTox-1 (Toxicity). […] Anti-HCV activity was assessed with the replicon (genotype 1b or 2a) or HCVcc virus-derived Luc activity as readout; whereas the cytotoxic concentrations of drug reducing cell numbers was assessed by the CytoTox-1 cell proliferation assay (Promega, Madison, Wis.) according to manufacturer's protocol. […]

The next assay has as its system BKV. Put plainly: qPCR assay for BKV. Particulars: Betapolyomavirus hominis, HFF cells. In kind it is cell-based, BK virus. Here is the method: qPCR Assays for BKV and JCV:
Primary assays for BK virus were performed in 96-well plates containing monolayers of HFF cells. Compound dilutions were prepared in plates containing cells which were subsequently infected at with the Gardner strain of BK virus. After a 7 d incubation, total DNA was prepared with a purification kit and genome copy number was quantified by real time PCR. Compounds that were positive in this assay were confirmed in a similar assay in 96-well plates with the compounds added 1 h […] to identify compounds that inhibit early stages of replication including adsorption and penetration. Genome copy number was determined by methods described above.
Primary assays for BK virus were performed in 96-well plates containing monolayers of HFF cells. Compound dilutions were prepared in plates containing cells which were subsequently infected at with the Gardner strain of BK virus. After a 7 d incubation, total DNA was prepared with a Wizard SV 96 well purification kit and genome copy number was quantified by real time PCR using the primers 5′-[…]-3′ (SEQ ID No. 8) , 5′-[…]-3′ (SEQ ID No. 9) and probe 5-6-FAM […]-3′ (SEQ ID No. 10) . Plasmid pMP526 served as the DNA standard for quantitation purposes. […] Genome copy number was determined by methods described above.

Another assay concerns HHV-6B. In words: organism not typed. The format is cell-based. Particulars: MOLT-3 cells.
The next assay has as its system WNV. In words: microbe, parasite or virus in culture. In kind it is cell-based. Conditions: West Nile virus, Vero 76, Vero76 cells.

pEC50: −log10 of the molar value. A value given as a limit tells only on which side of the number the result lay.

Take `Cc1nc(N)c2c(C(N)=O)cn([C@@H]3O[C@H](CO)[C@@H](O)[C@H]3O)c2n1` [Compound 1, 4-amino-7-((2R,3R,4S,5R)-3,4-dihydroxy-5-(hydroxymethyl)tetrahydrofuran-2-yl)-2-methyl-7H-pyrrolo[2,3-d]pyrimidine-5-carboxamide]: the pEC50 – broadly, −log10 of the EC50, conventionally taken in molar units – is less than 4.00 with MCMV; less than 4.00 with RVFV; 4.74 in the assay with HCV; less than 4.22 in the assay with BKV; 4.40 with HHV-6B; less than 4.00 in the assay on WNV.
